Measurements as given in PubChem BioAssay AID278 (DTP/NCI, 2004).
Where “and” joins values, the source holds several entries; their conditions need not be identical. Equal entries are not always repeated. Inconclusive results are not listed.

System: nude mice, A549 intrarenal xenograft, tumor weight change
Assay: NCI In Vivo Anticancer Drug Screen. Data for tumor model A549 Human Adenocarcinoma of Lung with characteristics of Type II Alveolar Epithelial cells (intrarenal inoculation) in NU/NU BALB/C (nude) mice
Settings: endpoint: mean tumor weight change, higher = larger tumour
Outline: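 Mice bearing transplantable tumors were treated and survival or tumor size recorded. Values are given as treated-group measurement divided by vehicle-control measurement (T/C).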

[1] = dose: 30.0 mg/kg/injection, schedule: Q04DX003 (ip), vehicle: saline with Tween-80
[2] = dose: 60.0 mg/kg/injection, schedule: Q04DX003 (ip), vehicle: saline with Tween-80
[3] = dose: 50.0 mg/kg/injection, schedule: Q04DX003 (ip), vehicle: water
[4] = dose: 100.0 mg/kg/injection, schedule: Q04DX003 (ip), vehicle: water
[5] = dose: 100.0 mg/kg/injection, schedule: Q04DX003 (ip), vehicle: saline with Tween-80
[6] = dose: 200.0 mg/kg/injection, schedule: Q04DX003 (ip), vehicle: saline with Tween-80
[7] = dose: 75.0 mg/kg/injection, schedule: Q04DX003 (ip), vehicle: saline with Tween-80
[8] = dose: 150.0 mg/kg/injection, schedule: Q04DX003 (ip), vehicle: saline with Tween-80
[9] = dose: 300.0 mg/kg/injection, schedule: Q04DX003 (ip), vehicle: saline with Tween-80
[10] = dose: 600.0 mg/kg/injection, schedule: Q04DX003 (ip), vehicle: saline with Tween-80
[11] = dose: 50.0 mg/kg/injection, schedule: Q04DX003 (ip), vehicle: saline with Tween-80

NNC(=O)c1ccncc1
T/C (dose: 37.5 mg/kg/injection, schedule: Q04DX003 (ip), vehicle: saline): 99 % of control | T/C (dose: 75.0 mg/kg/injection, schedule: Q04DX003 (ip), vehicle: saline): 104 % of control | T/C (dose: 150.0 mg/kg/injection, schedule: Q04DX003 (ip), vehicle: saline): 69 % of control

C=Cc1cc(OC)c2c(c1)c(=O)oc1c2cc(OC)c2c(O)ccc(C3OC(C)C(O)C(C)(O)C3O)c21 (stereo not given)
T/C (dose: 300.0 mg/kg/injection, schedule: Q04DX003 (ip), vehicle: DMSO): 32 % of control

COc1ccc(N=N/N=c2\sc3cc(OC)ccc3n2C)cc1
T/C [1]: 100 % of control | T/C [2]: 87 % of control | T/C (dose: 120.0 mg/kg/injection, schedule: Q04DX003 (ip), vehicle: saline with Tween-80): 73 % of control | T/C (dose: 240.0 mg/kg/injection, schedule: Q04DX003 (ip), vehicle: saline with Tween-80): 37 % of control

O=NNc1cccnc1
T/C [3]: 56 % of control and 75 % of control | T/C [4]: 80 % of control

Cc1ccccc1N=C(c1ccccc1)C1C(=O)c2ccccc2C1=O
T/C (dose: 150.0 mg/kg/injection, schedule: Q04DX003 (ip), vehicle: other): 101 % of control | T/C (dose: 300.0 mg/kg/injection, schedule: Q04DX003 (ip), vehicle: other): 75 % of control | T/C (dose: 600.0 mg/kg/injection, schedule: Q04DX003 (ip), vehicle: other): 104 % of control | T/C (dose: 1200.0 mg/kg/injection, schedule: Q04DX003 (ip), vehicle: other): 121 % of control

Cc1nc2c(N)cc(Cl)cc2[nH]1
T/C [5]: 89 % of control | T/C [6]: 95 % of control

CCOC(=O)c1ccc(NN=NCCF)cc1
T/C (dose: 75.0 mg/kg/injection, schedule: Q04DX003 (ip), vehicle: distilled water + Tween-80 + alcohol): 114 % of control | T/C (dose: 150.0 mg/kg/injection, schedule: Q04DX003 (ip), vehicle: distilled water + Tween-80 + alcohol): 160 % of control | T/C (dose: 300.0 mg/kg/injection, schedule: Q04DX003 (ip), vehicle: distilled water + Tween-80 + alcohol): 63 % of control

O=S(=O)(CCCCl)SCCCCl
T/C (dose: 40.0 mg/kg/injection, schedule: Q04DX003 (ip), vehicle: suspension in saline): 81 % of control | T/C (dose: 80.0 mg/kg/injection, schedule: Q04DX003 (ip), vehicle: suspension in saline): 86 % of control | T/C (dose: 160.0 mg/kg/injection, schedule: Q04DX003 (ip), vehicle: suspension in saline): 105 % of control | T/C (dose: 320.0 mg/kg/injection, schedule: Q04DX003 (ip), vehicle: suspension in saline): 112 % of control

CCCCCCNc1nc(NCCCCCC)c2[nH]c(NCCCCCC)nc2n1
T/C [7]: 52 % of control | T/C [8]: 117 % of control

O=c1[nH]cnc2c1cnn2CN1CCOCC1
T/C (dose: 50.0 mg/kg/injection, schedule: Q04DX003 (ip), vehicle: Klucel (hydroxypropylcellulose) (HPC)): 166 % of control | T/C (dose: 100.0 mg/kg/injection, schedule: Q04DX003 (ip), vehicle: Klucel (hydroxypropylcellulose) (HPC)): 72 % of control

O=S(=O)(O)c1cc(N=C=S)ccc1/C=C/c1ccc(N=C=S)cc1S(=O)(=O)O
T/C (dose: 3.75 mg/kg/injection, schedule: Q04DX003 (ip), vehicle: saline): 107 % of control | T/C (dose: 7.5 mg/kg/injection, schedule: Q04DX003 (ip), vehicle: saline): 64 % of control | T/C (dose: 30.0 mg/kg/injection, schedule: Q04DX003 (ip), vehicle: saline): 118 % of control

CC(C)(C)c1ccc(C(=O)N2CCOC23CCCCC3)cc1
T/C [8]: 55 % of control | T/C [9]: 28 % of control | T/C [10]: 63 % of control | T/C (dose: 1200.0 mg/kg/injection, schedule: Q04DX003 (ip), vehicle: saline with Tween-80): 42 % of control

NC(Cc1ccccc1)C(=O)OCN1C(=O)C2C3C=CC(C2C1=O)C1C2C(=O)N(COC(=O)C(N)Cc4ccccc4)C(=O)C2C31 (stereo not given)
T/C (dose: 25.0 mg/kg/injection, schedule: Q04DX003 (ip), vehicle: other): 82 % of control | T/C (dose: 50.0 mg/kg/injection, schedule: Q04DX003 (ip), vehicle: other): 73 % of control | T/C (dose: 100.0 mg/kg/injection, schedule: Q04DX003 (ip), vehicle: other): 48 % of control | T/C (dose: 200.0 mg/kg/injection, schedule: Q04DX003 (ip), vehicle: other): 35 % of control

COC1=C(OC)C(=O)C(N(C)C)=C(CO)C1=O
T/C (dose: 50.0 mg/kg/injection, schedule: Q04DX003 (ip), vehicle: saline): 123 % of control | T/C (dose: 100.0 mg/kg/injection, schedule: Q04DX003 (ip), vehicle: saline): 173 % of control

Cc1ccc(NN=O)nc1
T/C (dose: 5.0 mg/kg/injection, schedule: Q04DX003 (ip), vehicle: water): 79 % of control | T/C (dose: 10.0 mg/kg/injection, schedule: Q04DX003 (ip), vehicle: water): 81 % of control | T/C (dose: 20.0 mg/kg/injection, schedule: Q04DX003 (ip), vehicle: water): 61 % of control | T/C (dose: 40.0 mg/kg/injection, schedule: Q04DX003 (ip), vehicle: water): 33 % of control

CN=C(N)c1ccc(N=C(N)c2ccc(C(N)=Nc3ccc(C(N)=NC)cc3)cc2)cc1
T/C (dose: 13.0 mg/kg/injection, schedule: Q06HX010 (ip), vehicle: water): 70 % of control | T/C (dose: 20.0 mg/kg/injection, schedule: Q06HX010 (ip), vehicle: water): 98 % of control

ClC1(Cl)Cc2ccccc21
T/C [11]: 119 % of control | T/C [5]: 57 % of control | T/C [6]: 119 % of control

CN=C(N)N/N=C(\C)c1ccc2sc3ccc(/C(C)=N/NC(N)=NC)cc3c2c1
T/C [7]: 118 % of control | T/C [8]: 95 % of control | T/C [9]: 83 % of control

O=C(Nc1cccnc1)c1ccc([N+](=O)[O-])s1
T/C [6]: 38 % of control and 51 % of control

CC(O)C1(O)C(O)CC(OC2c3cc4c(c(O)c3[C@@H]3C[C@@]2(C)OC32C=c3cc[nH]c3=N2)C(=O)c2cccc(O)c2C4=O)OC1C (stereo not given in full)
T/C (dose: 25.0 mg/kg/injection, schedule: Q04DX003 (ip), vehicle: saline with Tween-80): 65 % of control | T/C [11]: 55 % of control

COc1cc(C2=NCCc3cc4c(cc32)OCO4)cc(OC)c1OC
T/C (dose: 37.5 mg/kg/injection, schedule: Q04DX003 (ip), vehicle: saline + alcohol): 73 % of control | T/C (dose: 75.0 mg/kg/injection, schedule: Q04DX003 (ip), vehicle: saline + alcohol): 49 % of control | T/C (dose: 150.0 mg/kg/injection, schedule: Q04DX003 (ip), vehicle: saline + alcohol): 31 % of control

c1nnc(NCNc2nncs2)s1
T/C (dose: 100.0 mg/kg/injection, schedule: Q04DX003 (ip), vehicle: suspension in saline): 61 % of control | T/C (dose: 144.0 mg/kg/injection, schedule: Q04DX003 (ip), vehicle: Klucel (hydroxypropylcellulose) (HPC)): 36 % of control | T/C (dose: 200.0 mg/kg/injection, schedule: Q04DX003 (ip), vehicle: suspension in saline): 23 % of control | T/C (dose: 240.0 mg/kg/injection, schedule: Q04DX003 (ip), vehicle: Klucel (hydroxypropylcellulose) (HPC)): 23 % of control | T/C (dose: 400.0 mg/kg/injection, schedule: Q04DX003 (ip), vehicle: suspension in saline): 20 % of control

CCOC(=O)Nc1cc2c(c(N)n1)N=C(c1ccc3ccccc3c1)CN2
T/C (dose: 7.5 mg/kg/injection, schedule: Q04DX003 (ip), vehicle: saline with Tween-80): 82 % of control | T/C (dose: 15.0 mg/kg/injection, schedule: Q04DX003 (ip), vehicle: saline with Tween-80): 113 % of control | T/C [1]: 63 % of control | T/C [2]: 55 % of control

COc1ccc2c(c1)-c1nn(CCCN(C)C)c3ccc([N+](=O)[O-])c(c13)N2
T/C (dose: 12.5 mg/kg/injection, schedule: Q04DX003 (ip), vehicle: water): 61 % of control | T/C (dose: 25.0 mg/kg/injection, schedule: Q04DX003 (ip), vehicle: water): 81 % of control | T/C [3]: 14 % of control | T/C [4]: 27 % of control

Nc1n[nH]c2ccccc12
T/C [8]: 69 % of control | T/C [9]: 52 % of control | T/C [10]: 33 % of control

O=C1CNC(=O)N1CN1CCOCC1
T/C (dose: 150.0 mg/kg/injection, schedule: Q04DX003 (ip), vehicle: Klucel (hydroxypropylcellulose) (HPC)): 198 % of control | T/C (dose: 300.0 mg/kg/injection, schedule: Q04DX003 (ip), vehicle: Klucel (hydroxypropylcellulose) (HPC)): 69 % of control

COC12[C@@H]3N[C@@H]3CN1C1=C(C(=O)C(NCCSSCCNC3=C(C)C(=O)C4=C(C3=O)C(COC(N)=O)[C@]3(OC)C5N[C@@H]5CN43)=C(C)C1=O)[C@@H]2COC(N)=O (stereo not given in full)
T/C (dose: 1.57 mg/kg/injection, schedule: Q04DX003 (ip), vehicle: DMSO): 29 % of control | T/C (dose: 3.13 mg/kg/injection, schedule: Q04DX003 (ip), vehicle: DMSO): -77 % of control | T/C (dose: 6.25 mg/kg/injection, schedule: Q04DX003 (ip), vehicle: DMSO): -33 % of control | T/C (dose: 12.5 mg/kg/injection, schedule: Q04DX003 (ip), vehicle: DMSO): 2 % of control
